In publication PMC3145320 (Bioorganic & medicinal chemistry, 2011):

How the values were obtained:
κ-opiate receptor = κ-opiate receptor (Homo sapiens, UniProt P41145); experiment: [3H] opioid receptor binding, κ; conditions: read-out: Ki κ; CHO cells stably transfected, expressing κ-opiate receptor; n=3
μ-opiate receptor [1] = target: T1, μ-opiate receptor (Homo sapiens, UniProt P35372); experiment: biochemical; conditions: for Kb: Ke μ-Antagonism
κ-opioid receptor = κ-opioid receptor (Homo sapiens, UniProt P41145); experiment: [35S]GTP-γ-S binding, κ-antagonism; assay type: biochemical; conditions: n=3; for Kb: Ke κ-Antagonism
Chain of κ-opioid receptor (P41145 whole entry): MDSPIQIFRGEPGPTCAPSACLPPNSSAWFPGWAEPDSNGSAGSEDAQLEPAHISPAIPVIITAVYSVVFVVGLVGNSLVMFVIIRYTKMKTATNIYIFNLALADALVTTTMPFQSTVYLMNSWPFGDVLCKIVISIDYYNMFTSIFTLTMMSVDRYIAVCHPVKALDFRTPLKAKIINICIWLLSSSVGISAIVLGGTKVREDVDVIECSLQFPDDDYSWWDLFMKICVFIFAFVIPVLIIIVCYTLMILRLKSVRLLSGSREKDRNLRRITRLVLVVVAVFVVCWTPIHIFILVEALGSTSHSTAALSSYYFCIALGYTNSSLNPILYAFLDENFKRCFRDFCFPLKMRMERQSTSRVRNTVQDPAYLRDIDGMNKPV

μ-opiate receptor [2] = target: T1, μ-opiate receptor; assay type: binding; conditions: read-out: Ki μ

T1 sequence (P35372 whole entry): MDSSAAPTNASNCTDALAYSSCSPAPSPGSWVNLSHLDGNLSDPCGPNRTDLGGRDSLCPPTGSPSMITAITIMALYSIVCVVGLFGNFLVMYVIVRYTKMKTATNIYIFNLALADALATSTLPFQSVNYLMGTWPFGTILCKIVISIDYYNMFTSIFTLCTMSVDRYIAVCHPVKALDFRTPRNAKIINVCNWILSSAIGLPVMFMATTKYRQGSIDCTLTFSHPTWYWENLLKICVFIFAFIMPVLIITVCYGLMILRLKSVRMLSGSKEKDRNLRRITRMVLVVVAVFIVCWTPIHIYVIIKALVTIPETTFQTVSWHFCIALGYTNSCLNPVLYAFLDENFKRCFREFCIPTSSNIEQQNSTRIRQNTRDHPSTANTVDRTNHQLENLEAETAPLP
Chain of κ-opiate receptor (P41145 whole entry): as the sequence (P41145 whole entry) above

| Molecule | Ki (κ-opiate receptor) [nM] | Ke μ-Antagonism (μ-opiate receptor [1]) [nM] | Ke κ-Antagonism (κ-opioid receptor) [nM] | Ki (μ-opiate receptor [2]) [nM] | Kb (κ-opioid receptor) [nM] | Kb (μ-opiate receptor [1]) [nM] |
| --- | --- | --- | --- | --- | --- | --- |
| (4S,6aR,11bS)-2,3,4,5,6,6a-hexahydro-3-phenethyl-1H-4,11b-methanobenzofuro[3,2-d]azocine-8-ol [Compound 19a] | 367 ± 19 | 328 ± 67 | 761 ± 191 | 384 ± 38 | – | – |
| Oc1ccc2c(c1)[C@]13CCN(CCc4ccccc4)[C@H](CC[C@H]1O2)C3 (racemic) [rac 10, rac-(4R,6aR,11bR)-2,3,4,5,6,6a-hexahydro-3-phenethyl-1H-4,11b-methanobenzofuro[3,2-d]azocin-10-ol] | – | – | – | – | 46 ± 9 | – |
| Oc1ccc2c(c1)[C@@]13CCN(CCc4ccccc4)[C@@H](CC[C@H]1O2)C3 [Compound 16b, (4S,6aR,11bS)-2,3,4,5,6,6a-Hexahydro-3-phenethyl-1H-4,11b-methanobenzofuro[3,2-d]azocine-10-ol] | – | – | – | – | 103 ± 17 | 227 ± 33 |
| Oc1cccc2c1O[C@H]1CC[C@@H]3C[C@]21CCN3CCc1ccccc1 (stereo in doubt) [Compound 19b, (4R,6aS,11bR)-2,3,4,5,6,6a-Hexahydro-3-phenethyl-1H-4,11b-methanobenzofuro[3,2-d]azocine-8-ol] | – | – | – | – | 22 ± 6 | 31 ± 6 |
| Oc1cccc2c1O[C@@H]1CC[C@@H]3C[C@]21CCN3CCc1ccccc1 (racemic) [rac 5, rac-(4R,6aR,11bR)-2,3,4,5,6,6a-hexahydro-3-phenethyl-1H-4,11b-methanobenzofuro[3,2-d]azocin-8-ol] | – | – | – | – | 163 ± 29 | 274 ± 49 |
| Oc1ccc2c(c1)[C@]13CCN(CCc4ccccc4)[C@H](CC[C@@H]1O2)C3 [Compound 16a, (4R,6aS,11bR)-2,3,4,5,6,6a-Hexahydro-3-phenethyl-1H-4,11b-methanobenzofuro[3,2-d]azocine-10-ol] | – | – | – | – | 100 ± 3 | 47 ± 9 |
